Measurements: PMC3793924, “Targeting Androgen Receptor/Src Complex Impairs the Aggressive Phenotype of Human Fibrosarcoma Cells” (PLoS ONE, 2013)

What was measured:
NIH3T3 cells = experiment: BrdU incorporation in NIH3T3 fibroblasts; format: cell-based, mouse; settings: EGF 100 ng/ml, 18 h; for Inhibition of EGF-induced BrdU incorporation: quiescent NIH3T3 fibroblasts, Casodex 10 μM, S1 and Ss peptides 1 nM
Method: NIH3T3 cells were used. In A, cells were transfected with 3416 or 3424 ARE-Luc constructs with or without hAR-expressing plasmid and then made quiescent as reported in Methods. Cells were left unstimulated or stimulated for 18 h with 10 nM R1881. Luciferase activity was assayed, normalized using beta-gal as an internal control, and expressed as fold induction. Three independent experiments were performed in triplicate. Means and SEM are shown; n represents the number of experiments. […] After in vivo labeling with BrdU (100 μM), BrdU incorporation was analyzed by IF and expressed as % of total cells. Several independent experiments were performed in duplicate and data derived from at least 700 scored cells for each coverslip. Mean and SEM are shown. n represents the number of experiments. […] Quiescent NIH3T3 fibroblasts were used. In C, cells on coverslips were left unstimulated or stimulated for 18 h with the indicated compounds. […] After in vivo pulse with BrdU (100 μM), BrdU incorporation was analyzed by IF and expressed as % of total cells. Several independent experiments were performed in duplicate and the results were derived from at least 500 scored cells for each coverslip. Mean and SEM are shown. n represents the number of experiments. […] The Western blot of MCF-7 cell lysate with the anti-tubulin or the anti-EGFR antibody is shown for comparison. In D, cells were left untreated or treated for 6 h with the indicated compounds. […] Cells were allowed to migrate in collagen pre-coated Trans-well filters. Migrated cells were stained and counted as reported in Methods. Results were derived from several independent experiments, each performed in duplicate. Data are expressed as relative increase. Mean and SEM are shown. n represents the number of experiments. […] (PPTX) Click here for additional data file.

LNCaP cells = experiment: Trans-well migration of LNCaP cells; format: cell-based, human; settings: quiescent LNCaP cells, 6 h, EGF 100 ng/ml; for Inhibition of EGF-induced motility (transmigration): Casodex 10 μM, S1 and Ss peptides 1 nM
EGFR/AR/Src complex = biological target: T1, EGFR/AR/Src complex (Homo sapiens, UniProt P12931); experiment: Co-immunoprecipitation of EGFR/AR/Src complex in HT1080 cells; format: cell-based; settings: quiescent HT1080 cells; for Effect on EGF-induced EGFR/AR/Src complex assembly: EGF 100 ng/ml 10 min, S1 and Ss peptides 1 nM, anti-EGFR immunoprecipitation
T1 construct: endogenous in cells; host or cells: HT1080 human fibrosarcoma cells
Method: (§1) Quiescent HT1080 cells were used. […] Casodex (at 10 μM) was used for comparison with the S1 peptide. Upper section in A, Western blot of HT1080 cell lysates with anti-EGFR antibody. […] In B, lysates were immune-precipitated with the anti-Src MAb and Src activity in immune complexes was assayed using acidified enolase, as a substrate. In C, cells on coverslips were left untreated or treated for 18 h with the indicated compounds. After in vivo pulse with BrdU (100 μM), BrdU incorporation was analyzed by IF and expressed as % of total nuclei. Several independent experiments were performed in duplicate and the results were obtained from at least 500 scored cells for each coverslip. Mean and SEM are shown. n represents the number of experiments.
(§2) Lysates (at 2 mg/ml protein concentration) were prepared as described. […] The Src tyrosine kinase activity in immunocomplexes was assayed using enolase (Sigma) as a substrate.

HCT116 cells = experiment: BrdU incorporation in HCT116 cells; format: cell-based, human; settings: quiescent HCT116 cells, EGF 100 ng/ml, 18 h; for Inhibition of EGF-induced BrdU incorporation: Casodex 10 μM, S1 and Ss peptides 10 nM
Method: Quiescent human colon cancer-derived HCT116 cells were used. In A, cells on coverslips were left un-stimulated or stimulated for 18 h with the indicated compounds. […] After in vivo pulse with BrdU (100 μM), BrdU incorporation was analyzed by IF and expressed as % of total cells. Several independent experiments were performed in duplicate and the results were derived from at least 400 scored cells for each coverslip. Mean and SEM are shown. n represents the number of experiments. In B, the cells were left untreated or treated for 6 h with the indicated compounds. […] Cells were allowed to migrate in collagen-pre-coated Trans-well filters. Migrated cells were stained and counted as reported in Methods. Results were derived from several independent experiments, each performed in duplicate. Data are expressed as relative increase. Mean and SEM are shown. n represents the number of experiments. Quiescent human pancreatic cancer-derived KP-2 cells were used. In C, cells on coverslips were left unstimulated or stimulated for 18 h with the indicated compounds. […] After in vivo pulse with BrdU (100 μM), BrdU incorporation was analyzed by IF and expressed as % of total cells. Several independent experiments were performed in duplicate and the results were derived from at least 400 scored cells for each coverslip. Mean and SEM are shown. n represents the number of experiments. In D, the cells were left untreated or treated for 6 h with the indicated compounds. […] Cells were allowed to migrate in collagen-pre-coated Trans-well filters. Migrated cells were stained and counted as reported in Methods. Results were derived from several independent experiments, each performed in duplicate. Data are expressed as relative increase. Mean and SEM are shown. n represents the number of experiments. […] After in vivo labeling with 100 μM BrdU (Sigma), DNA synthesis was analyzed by immunofluorescence, using diluted (1:50 in PBS) mouse monoclonal anti-BrdU antibody (clone BU-1, from GE Healthcare).

Src tyrosine kinase = biological target: T2, Src tyrosine kinase (Homo sapiens, UniProt P12931); experiment: Src kinase activity in immune complexes from HT1080 cells (enolase substrate); format: cell-based; settings: quiescent HT1080 cells, EGF 100 ng/ml 10 min; S1 and Ss peptides 1 nM; Casodex 10 μM
T2 construct: lysates were immune-precipitated with the anti-Src MAb and Src activity in immune complexes was assayed using acidified enolase; endogenous in cells; host or cells: HT1080 human fibrosarcoma cells
Method: as §1, §2

KP-2 cells = experiment: Trans-well migration of KP-2 cells; format: cell-based, human; settings: quiescent KP-2 cells, 6 h, EGF 100 ng/ml; for Inhibition of EGF-induced motility (transmigration): Casodex 10 μM, S1 and Ss peptides 10 nM
HT1080 cells [1] = experiment: Wound scratch assay in HT1080 cells; format: cell-based, human; settings: quiescent HT1080 cells, 6 h, EGF 100 ng/ml; for Effect on EGF-induced wound closure (migration): Casodex 10 μM, S1 and Ss peptides 10 nM
HT1080 cells [2] = experiment: BrdU incorporation (DNA synthesis) in quiescent HT1080 cells; format: cell-based, human; settings: EGF 100 ng/ml, 18 h; for Inhibition of EGF-induced BrdU incorporation (DNA synthesis): Casodex 10 μM, S1 and Ss peptides 1 nM, BrdU by IF, % of total nuclei
Method: Human fibrosarcoma HT1080 cells were used. In A, quiescent cells on coverslips were left un-stimulated or stimulated for 18 h with the indicated compounds. […] After in vivo pulse with BrdU (100 μM; Sigma), BrdU incorporation was analyzed by IF and expressed as % of total nuclei. Several independent experiments were performed in duplicate and the results were derived from at least 400 scored cells for each coverslip. Mean and SEM are shown. n represents the number of experiments. […] In B, xenografts were established in nude male mice as described in Methods. On alternate days, animals were intra-peritoneally injected with vehicle alone (vehicle), or the pure androgen antagonist Casodex (Cx: 0.1 μg/mice; 4µg/Kg body weight), or DHT (DHT: 0,1 μg/mice; 3 μg/Kg body weight) alone. Volumes of HT1080 cell xenografts were measured at the indicated times in two dimensions by a caliper and expressed as tumor mass (mm^3). Mean and SEM are shown. n represents the number of experiments.
as §1

MCF-7 cells = experiment: Trans-well migration of MCF-7 cells; format: cell-based, human; settings: quiescent MCF-7 cells, 6 h, EGF 100 ng/ml; for Inhibition of EGF-induced motility (transmigration): Casodex 10 μM, S1 and Ss peptides 10 nM

| Compound | Inhibition of EGF-induced BrdU incorporation (NIH3T3 cells) | Inhibition of EGF-induced motility (transmigration) (LNCaP cells) | Effect on EGF-induced EGFR/AR/Src complex assembly (EGFR/AR/Src complex) | Inhibition of EGF-induced BrdU incorporation (HCT116 cells) | Inhibition of EGF-triggered Src activity stimulation (Src tyrosine kinase) | Inhibition of EGF-induced motility (transmigration) (KP-2 cells) | Effect on EGF-induced wound closure (migration) (HT1080 cells [1]) | Inhibition of EGF-induced BrdU incorporation (DNA synthesis) (HT1080 cells [2]) | Inhibition of EGF-induced motility (transmigration) (MCF-7 cells) | BrdU incorporation (DNA synthesis) upon stimulation with the compound alone (NIH3T3 cells; quiescent NIH3T3 cells, R1881 10 nM) | Motility in transmigration assay upon stimulation (LNCaP cells) | Association of EGF-R with AR and Src upon stimulation (EGFR/AR/Src complex; EGF 100 ng/ml, 10 min) | BrdU incorporation upon stimulation (HCT116 cells) | Motility upon stimulation (KP-2 cells) | Wound closure upon stimulation (HT1080 cells [1]) | BrdU incorporation (DNA synthesis) upon stimulation with the compound alone (HT1080 cells [2]; R1881 and DHT 10 nM) | Motility in transmigration assay upon stimulation (MCF-7 cells) |
| --- | --- | --- | --- | --- | --- | --- | --- | --- | --- | --- | --- | --- | --- | --- | --- | --- | --- |
| Ac-PPPHPHARIK-NH2 [S1 peptide] | significantly inhibit both the responses | inhibited to a similar extent | abolishes AR/Src association with EGF-R | similarly inhibit these EGF-elicited responses | completely abolishes | inhibit both DNA synthesis and motility | consistently inhibits the EGF-induced effect | abolishes the mitogenic response elicited by EGF | inhibited to a similar extent | – | – | – | – | – | – | – | – |
| EGF: epidermal growth factor (Roche), used as stimulus at 100 ng/ml | – | – | – | – | – | – | – | – | – | significantly increases BrdU incorporation | significantly increases the motility | induces association of EGF-R with AR and Src | robustly increases BrdU incorporation | significantly increases | almost complete wound closure | significantly incorporate BrdU | significantly increases the motility |
| CC(O)(CS(=O)(=O)c1ccc(F)cc1)C(=O)Nc1ccc(C#N)c(C(F)(F)F)c1 (centres unmarked) [Casodex] | significantly inhibit both the responses | inhibited to a similar extent | – | similarly inhibit these EGF-elicited responses | This inhibition is comparable to that observed by treatment of cells with 10 μM Casodex | inhibit both DNA synthesis and motility | Only few cells migrate | inhibits the EGF-induced BrdU incorporation | inhibited to a similar extent | – | – | – | – | – | – | – | – |
| Ac-HPKPARIPHP-NH2 [Ss peptide] | slightly modifies DNA synthesis | – | only slightly affects | does not interfere with the EGF-elicited responses | only slightly affects | does not interfere with the EGF-elicited responses | much weaker inhibitory effect | only slightly affects | – | – | – | – | – | – | – | – | – |
